Molecules are shown by their SMILES. Counter-ions that a name gives are not always drawn. A value given as a limit tells only on which side of the number the result lay.

The target in data set [1] is T1, human collagenase-1 catalytic domain (Homo sapiens, UniProt P03956).
T1 construct: the collagenase-1 catalytic domain was released by treatment with 1 mM of aminophenylmercuric acetate (APMA); ubiquitin (cleaved yes); made in house; host or cells: E. coli
T1 sequence (P03956 100-269 limits assumed): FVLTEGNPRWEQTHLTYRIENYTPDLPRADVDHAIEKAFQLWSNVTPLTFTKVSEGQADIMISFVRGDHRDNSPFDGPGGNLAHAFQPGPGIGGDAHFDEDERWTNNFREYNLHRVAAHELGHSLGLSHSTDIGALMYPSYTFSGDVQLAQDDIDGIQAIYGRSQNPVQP
As to the kind of experiment: MMP inhibition in vitro, human collagenase-1. In kind it is biochemical. The note with it: MCA-Pro-Leu-Gly-Leu-DPA-Ala-Arg-NH2 hydrolysis at 37° C.; read-out: Collagenase-I IC50. As for the experimental part: The catalytic domain of human collagenase-1 was expressed as a fusion protein with ubiquitin in E. Coli as described in Gehring, E. R. et al., J. Biol. Chem., 270, 22507, (1995). After purification of the fusion protein, the collagenase-1 catalytic domain was released by treatment with 1 mM of aminophenylmercuric acetate (APMA) for 1 hour at 37° C. and then purified by zinc chelate chromatography.
(§1) The matrix metalloprotease inhibitory activity of compounds of this invention in vitro was determined based on the hydrolysis of MCA-Pro-Leu-Gly-Leu-DPA-Ala-Arg-NH2 (Bachem, Inc.) at 37° C. as described in Knight, C. G., et al., FEBS Lett., 296, 263-266 (1992).
(§2) The matrix metalloprotease enzyme was diluted with assay buffer (50 mM Tricine pH 7.5, 200 mM NaCl, 10 mM CaCl2, and 0.005% Brij-35) containing 10 μmole of above substrate dissolved in DMSO. Compounds of the invention dissolved in DMSO or only DMSO (control samples) were added such that the final DMSO concentration in all assays was 2.5%. The fluorescence changes were monitored with a Perkin-Elmer LS-50B flourimeter using an excitation wavelength of 328 nm and an emission wavelength of 393 nm.

The target in data set [2] is T2, human collagenase-3 catalytic domain (Homo sapiens, UniProt P45452).
T2 construct: After purification, the catalytic domain was released by treatment with 1 mM APMA for 1 hour at 37° C; ubiquitin (N, cleaved yes); made in house; host or cells: E. coli
Kind of data set: MMP inhibition in vitro, human collagenase-3. In kind it is biochemical. The following applies: MCA-Pro-Leu-Gly-Leu-DPA-Ala-Arg-NH2 hydrolysis at 37° C.; read-out: Collagenase-III IC50. The protocol:
The propeptide and catalytic domain portion of human collagcenase-3 was expressed in E. Coli as an N-terminal fusion protein with ubiquitin. After purification, the catalytic domain was released by treatment with 1 mM APMA for 1 hour at 37° C., and then purified by zinc chelate chromatography.
as §1, §2

By melting point is commonly meant the temperature of the solid-liquid transition. For `CC(NS(=O)(=O)N1CCc2c([nH]c3ccccc23)C1)C(=O)[O-].[Na+]` (stereo not shown), the melting point was 209 to 211 °C (dec.).

Consider `COCCN(CC(=O)NO)S(=O)(=O)N1CCN(c2ccc(Cl)cc2)CC1` (as salt: TFA) [compound 16], for which the melting point lay in the range of 54.1 to 57.7 °C.

One may read the IC50 as the concentration that gives 50% inhibition. `O=C(NO)C1CCCCN1S(=O)(=O)N1CCC(c2c[nH]c3ccc(F)cc23)CC1` (racemic) [compound 254]: the figures for the IC50 in data set [1] and in data set [2] were more than 50000 nM and 181 nM, respectively.

For `CC(=O)N1CCN(S(=O)(=O)N2CCC(C(=O)c3ccc(Cl)cc3)CC2)C(C(=O)NO)C1` (racemic) [compound 255], the values for the IC50 in data set [1] and in data set [2] were 120 nM and 0.19 nM, respectively.

`O=C(NO)C1CCCCN1S(=O)(=O)N1CCC(c2c[nH]c3cc(Cl)ccc23)CC1` (racemic) [compound 256] returned a melting point of 143 to 151 °C. For the same molecule, the IC50 in data set [1] worked out at 26000 nM. Further, the IC50 in data set [2] was found to be 33 nM.

Take `O=CN1CCN(S(=O)(=O)N2CCC(C(=O)c3ccc(Cl)cc3)CC2)C(C(=O)NO)C1` (racemic) [compound 262]: the IC50 came to 88 nM in data set [1] and 0.13 nM in data set [2].

As for `O=C(NO)C1CCCCN1S(=O)(=O)N1CCC(c2noc3cc(F)ccc23)CC1` (racemic) [compound 286], the melting point was in the range of 145.8 to 146.9 °C. In addition, the IC50 in data set [1] was 29 nM. Further, in data set [2], the IC50 was determined as 0.063 nM.

As to `O=C(NO)C1CCCCN1S(=O)(=O)N1CC=C(c2ccc(Cl)cc2)CC1` (racemic) [compound 375, N-hydroxy-1-[4-(4-chlorophenyl)-1,2,3,6-tetrahydropyridine-1-sulfonyl]piperidine-2-(RS)-carboxamide], the melting point fell in the range of 137.8 to 138.1 °C.

As for `Cc1cc(C2=CCN(S(=O)(=O)N3CCN(C(=O)OCc4ccccc4)CC3C(=O)NO)CC2)ccc1F` (racemic) [compound 381, N-hydroxy-4-benzyloxycarbonyl-1-[4-(4-fluoro-3-methylphenyl)-1,2,3,6-tetrahydropyridine-1-sulfonyl]piperazine-2-(RS)-carboxamide], the melting point lay within 67 to 70 °C.

`COCCN(CC(=O)NO)S(=O)(=O)N1CCN(c2ccc(Cl)cc2)CC1` [compound 16]: the IC50 in data set [1] is 22000 nM; in data set [2], 21 nM.

For `O=C(CNS(=O)(=O)N1CCN(c2cccc(Cl)c2)CC1)NO` [compound 33, N-hydroxy-2-{[4-(3-chlorophenyl)piperazine-1-sulfonyl]amino}acetamide], the melting point was 138.1 to 138.6 °C.

Molecule `C[C@@H](NS(=O)(=O)N1CCC(Oc2ccc(Cl)cc2)CC1)C(=O)NO` [compound 57, N-hydroxy-2-(R)-{[4-(4-chlorophenoxy)piperidine-1-sulfonyl]amino}propionamide] showed a melting point of 93 to 94 °C.

On to `CC(C)(C)[C@@H](NS(=O)(=O)N1CCN(c2ccc(Cl)cc2)CC1)C(=S)NO` [compound 62, N-hydroxy-2-(R)-{[4-(4-chlorophenyl)piperazine-1-sulfonyl]amino}-3-methyl-3-methylthiobutyramide], for which the melting point lay within 158.5 to 159.6 °C.

`O=C(NO)[C@@H](Cc1ccc(O)cc1)NS(=O)(=O)N1CCN(c2ccc(Cl)cn2)CC1` [compound 103, N-hydroxy-2-(R)-{[4-(5-chloropyridin-2-yl)piperazine-1-sulfonyl]amino}-3-(4-hydroxyphenyl)propionamide] gave a melting point of 142 °C.

Take `CC(C)[C@H](C(=O)NO)N(CCCc1cccnc1)S(=O)(=O)N1CCC(Oc2ccc(Br)cc2)CC1` [compound 105]: the IC50 in data set [1] came to 129 nM; in data set [2] it was 0.59 nM.

For the molecule `C[C@H](NS(=O)(=O)N1CCC(C(=O)c2ccc(Cl)cc2)CC1)C(=O)NO` [compound 125, N-hydroxy-2-(S)-{[4-(4-chlorobenzoyl)piperidine-1-sulfonyl]amino}propionamide], the melting point lay within 201.2 to 201.8 °C.

`CC(C)[C@@H](NS(=O)(=O)N1CCC(c2ncc(-c3ccccc3)s2)CC1)C(=O)NO` [compound 136, N-hydroxy-2-(R)-{[4-(5-phenylthiazol-2-yl)piperidine-1-sulfonyl]amino}-3-methylbutyramide] showed a melting point of 120 to 122.1 °C.

In turn, `C[C@@H](NS(=O)(=O)N1CCC(C(=O)c2ccc(Oc3ccccc3)cc2)CC1)C(=O)NO` [compound 148, N-hydroxy-2-(R)-{[4-(4-phenoxybenzoyl)piperidine-1-sulfonyl]amino}propionamide] yielded a melting point of 202 to 205 °C.

As for `C[C@@H](NS(=O)(=O)N1CCN(C(=O)Nc2ccc(Cl)cc2)CC1)C(=O)NO` [compound 177, N-hydroxy-2-(R)-{[4-(4-chlorophenylaminocarbonyl)piperazine-1-sulfonyl]amino}propionamide], the values for the IC50 in data set [1] and in data set [2] were 9300 nM and 1.6 nM, respectively.

Take `CC(C)[C@@H](NS(=O)(=O)N1CCC(Oc2cccc(Cl)n2)CC1)C(=O)NO` [compound 183, N-hydroxy-2-(R)-{[4-(6-chloropyridin-2-yloxy)piperidine-1-sulfonyl]amino}-3-methylbutyramide]: the melting point was 81 to 96 °C.

Molecule `O=C(NO)[C@H](NS(=O)(=O)N1CCC(Oc2ccc(Cl)cn2)CC1)C1CCCCC1` [compound 207, N-hydroxy-2-(R)-{[4-(5-chloropyridin-2-yloxy)piperidine-1-sulfonyl]amino}-2-cyclohexylacetamide] displayed a melting point of 171.1 to 171.4 °C.

In turn, `C[C@@H](NS(=O)(=O)N1CCN(C(=O)Nc2ccc(Oc3ccccc3)cc2)CC1)C(=O)NO` [compound 213, N-hydroxy-2-(R)-{[4-(4-phenoxyphenylaminocarbonyl)piperazine-1-sulfonyl]amino}propionamide] displayed a melting point of 119 to 122 °C.

`O=C(NO)[C@H](NS(=O)(=O)N1CCC(c2ccc(F)cc2)CC1)c1ccc(F)cc1` [compound 230, N-hydroxy-2-(R)-{[4-(4-fluorophenyl)piperidine-1-sulfonyl]amino}-2-(4-fluorophenyl)acetamide] returned a melting point of 90 to 92 °C.

With `O=C(NO)[C@H]1CCCCN1S(=O)(=O)N1CCCC1` [compound 232, N-hydroxy-1-(pyrrolidine-1-sulfonyl)piperidine-2-(R)-carboxamide], the melting point fell in the range of 142 to 144 °C.

As for `N#Cc1ccc2[nH]cc(C3CCN(S(=O)(=O)N4CCCC[C@@H]4C(=O)NO)CC3)c2c1` [compound 294], the figures for the IC50 in data set [1] and in data set [2] were more than 50000 nM and 340 nM, respectively.

As for `CN(C)C(=O)N1CCN(S(=O)(=O)N2CCC(C(=O)c3ccc(Cl)cc3)CC2)[C@@H](C(=O)NO)C1` [compound 298], the values for the IC50 in data set [1] and in data set [2] were 130 nM and 0.2 nM, respectively.

As to `CN(C)S(=O)(=O)N1CCN(S(=O)(=O)N2CCC(C(=O)c3ccc(Cl)cc3)CC2)[C@@H](C(=O)NO)C1` [compound 315], the IC50 in data set [2] worked out at 0.1 nM.

`O=C(NO)C1(NS(=O)(=O)N2CCC(Oc3ccccc3)CC2)CCCC1` [compound 337, N-hydroxy-1-{[(4-phenoxy)piperidine-1-sulfonyl]amino}cyclopentane-1-carboxamide] registered a melting point of 124.5 to 125.5 °C.

Regarding `O=C(NO)C1(NS(=O)(=O)N2CCN(c3ccc(Cl)cc3)CC2)CCOCC1` [compound 339, N-hydroxy-4-{[4-(4-chlorophenyl)piperazine-1-sulfonyl]amino}tetrahydropyran-4-carboxamide], the melting point lay within 192.5 to 192.7 °C.

For `O=C(NO)C1(NS(=O)(=O)N2CCN(c3ccc(Cl)cn3)CC2)CCCCC1` [compound 342], the figures for the IC50 in data set [1] and in data set [2] were 170 nM and 2.1 nM, respectively.

The molecule `CC(C)(NS(=O)(=O)N1CCC(C(=O)c2ccc(Cl)cc2)CC1)C(=O)NO` [compound 351, N-hydroxy-2-{[4-(4-chlorobenzoyl)piperidine-1-sulfonyl]amino}-2-methylpropionamide] showed a melting point of 185.7 to 186.7 °C.

As to `CN(Cc1ccccc1)S(=O)(=O)N(CC(=O)NO)Cc1ccccc1` [compound 355], the IC50 in data set [1] is 650 nM; in data set [2], 56 nM.

As for `C[C@@H](NS(=O)(=O)N1CCN(c2ccc(Cl)cc2)CC1)C(=O)O` [compound 414], the IC50 was more than 50000 nM in data set [1] and 3400 nM in data set [2].

As to `CN(Cc1ccccc1)S(=O)(=O)N(CC(=O)O)Cc1ccccc1` [compound 430], the IC50 in data set [1] was determined as 2200 nM; in data set [2], 890 nM.

On to `C[C@H](C(=O)O)N(Cc1ccccc1)S(=O)(=O)NCc1ccccc1` [compound 431], for which the concentration for half-maximal inhibition (IC50) was more than 50000 nM in data set [1] and 6500 nM in data set [2].

The values above are taken from patent publication US6376506B1, “Sulfamide-metalloprotease inhibitors” (Syntex (U.S.A.) LLC, priority 1997, dated 2002).
